# Assay results as given in patent publication US20140371244A1, “METHOD FOR TREATING PROSTATE CANCER BY USE OF PHARMACEUTICAL COMPOSITION CONTAINING A3 ADENOSINE RECEPTOR AGONIST” (priority 2009, published 2014).
# Experiments:
# [1] = tested on: human colorectal cancer HCT 116 cells; test: SRB assay, growth of HCT 116 cells; format: cell-based; conditions: 72 hours
# Method: In order to compare the inhibitory effect of thio-Cl-IB-MECA of the present invention on the inhibition of human colorectal cancer HCT 116 cells with the effects of other A3 adenosine receptor agonists, IB-MECA and Cl-IB-MECA, a sulforhodamine B (SRB) assay was performed.
# Specifically, 10 μL of a solution of thio-Cl-IB-MECA in 10% dimethylsulfoxide (DMSO) was loaded in each well of a 96-well plate in triplicate at concentrations of 100, 50, 25 and 12.5 μM, thus making a test plate. Cells were diluted to a density of 5×10^4 cells/ml with 10% FBS-containing RPMI 1640 medium supplemented with antibiotics-antimycotics, and 190 μL of the cell suspension was added to each well so as to reach a total volume of 200 μL and was cultured in a 5% CO2 incubator at 37° C. for 3 days. At the same time, 190 μL of the same cell suspension was loaded into each of 16 wells or more of a fresh 96-well plate containing no sample (thio-Cl-IB-MECA) and was cultured in a 5% CO2 incubator at 37° C. for 30 minutes, thereby determining reference date. After the culture, 50 μL of 50% trichloroacetic acid (TCA) was added to each well, and the cells were fixed by culture at 4° C. for 1 hour. Then, the well plate was washed five times with tap water and dried. 100 μL of a 1% acetic acid solution containing […] sulforhodamine B (SRB) was added to each well to stain the cells, and the well plate was allowed to stand at room temperature for 1 hour. After the well plate has been washed five times with 1% acetic acid and sufficiently dried, 200 μL of 100 mM Tris-base was added to each well, and the bound staining liquid was dissolved and sufficiently shaken in a shaker. Then, the absorbance at 515 nm was measured using an ELISA microplate reader. Based on the measured absorbance, the cell viability of the test group relative to the control group was calculated using equation 2 above. Based on the viability at each concentration, the IC50 value of the test sample was calculated using TableCurve program.
# In the cases of IB-MECA or Cl-IB-MECA, the viability of cancer cells was examined in the same manner as the case of thio-Cl-IB-MECA.
# [2] = tested on: human colorectal cancer HCT 116 cells; test: Anticancer activity in nude mice transplanted with HCT 116 cells; format: in vivo, nude mice (Balb/c-nu/nu mice)
# Method: HCT 116 cells were prepared at a concentration of 2×10^6 cells/200 μl (RPMI) and administered subcutaneously into the right frank of 6-week-old female nude mice (Balb/c-nu/nu mice). The tumor size was measured with calipers, and the tumor size reached about 100 mm^3, 20 mice having substantially the same tumor size were divided into a control group and three sample-treated groups. The three sample-treated group were administered orally with IB-MECA at doses of 0.02, 0.2 and 2 mg/kg, respectively, for 21 days. In the control group and the sample-treated groups, the bodyweight was measured once every week, and the tumor size was measured at intervals of 3-4 days. The tumor volume was measured using equation 3 above. In the equation, a represents the longer diameter of the tumor, b represents the shorter diameter of the tumor, and c represents the height of the tumor.
# Anticancer activity was measured by an animal test in the same manner as Example 20, except that 6-week-old female nude mice were administered with Cl-IB-MECA in place of IB-MECA as a sample.
# Anticancer activity was measured by an animal test in the same manner as Example 20, except that 6-week-old female nude mice were administered with thio-Cl-IB-MECA in place of IB-MECA as a sample.
# [3] = tested on: prostate cancer cell line PC-3; test: Anticancer activity in PC-3 tumor-transplanted nude mice; format: in vivo; conditions: 2 mg/kg orally every day for 35 days
# Method: Based on the anticancer activity of thio-Cl-IB-MECA against prostate cancer cells, proven by the in vitro test, the anticancer activity of thio-Cl-IB-MECA was measured by an animal test. The prostate cancer cell line PC-3 was transplanted subcutaneously into nude mice, and when the tumor size reached 150-200 mm^3 after 8 days, the drug thio-Cl-IB-MECA (0.02, 0.2 and 2 mg/kg), thio-IB-MECA (2 mg/kg) or IB-MECA (2 mg/kg) was administered orally every day for 35 days. The tumor size was measured at intervals of 3-5 days. The tumor volume was measured using the following equation 3.
# Tumor volume=abc×π/6 [Equation 3]
# wherein a represents the longer diameter of the tumor, b represents the shorter diameter of the tumor, and c represents the height of the tumor.
# ICR white mice = test: Animal toxicity test, single oral dose; format: in vivo; conditions: mouse, in vivo, po
# Method: In order to examine the toxicities of thio-Cl-IB-MECA and thio-IB-MECA, each of the compounds was administered orally to ICR white mice (n=10, 25 g) at a dose of 1500 mg/kg weight, and the behavioral change and state of the mice were observed.
IC50 ([1]; SRB),SMILES,"growth of HCT 116 cells ([1]; 100, 50, 25 and 12.5 μM)",inhibition rate of tumor growth ([2]; 0.02 mg/kg orally for 21 days),inhibition rate of tumor growth ([2]; 0.2 mg/kg orally for 21 days),inhibition rate of tumor growth ([2]; 2 mg/kg orally for 21 days),"side effects (such as a change in bodyweight) during the test period ([2]; 0.02, 0.2 and 2 mg/kg orally for 21 days)",tumor production inhibitory activity relative to the control group [3],maximum tolerance dose (MTD) (ICR white mice),survival and side effects up to 7 days after administration (ICR white mice; 1500 mg/kg)
19.3 µM,CNC(=O)[C@H]1O[C@@H](n2cnc3c(NCc4cccc(I)c4)nc(Cl)nc32)[C@H](O)[C@@H]1O [Cl-IB-MECA],concentration-dependently inhibited the growth,18.2%,43.8%,67.3%,survived healthfully without particular side effects,–,–,–
–,"CNC(=O)[C@H]1S[C@@H](n2cnc3c(NCc4cccc(I)c4)ncnc32)[C@H](O)[C@@H]1O [thio-IB-MECA, N^6-(3-iodobenzyl)-4′-thioadenosine-5′-N-methyluronamide]",–,–,–,–,–,about 53.6%,more than 1500 mg/kg,survived healthfully without particular side effects
